Experimental findings from patent US20240246935A1 (Plexium, Inc., priority 2021, published 2024) are described below.

The structures appear in SMILES notation. Where only a bound is given, the exact number is not on record here.

human E3 ligase component cereblon (CRBN), sequence (Q96SW2 whole entry): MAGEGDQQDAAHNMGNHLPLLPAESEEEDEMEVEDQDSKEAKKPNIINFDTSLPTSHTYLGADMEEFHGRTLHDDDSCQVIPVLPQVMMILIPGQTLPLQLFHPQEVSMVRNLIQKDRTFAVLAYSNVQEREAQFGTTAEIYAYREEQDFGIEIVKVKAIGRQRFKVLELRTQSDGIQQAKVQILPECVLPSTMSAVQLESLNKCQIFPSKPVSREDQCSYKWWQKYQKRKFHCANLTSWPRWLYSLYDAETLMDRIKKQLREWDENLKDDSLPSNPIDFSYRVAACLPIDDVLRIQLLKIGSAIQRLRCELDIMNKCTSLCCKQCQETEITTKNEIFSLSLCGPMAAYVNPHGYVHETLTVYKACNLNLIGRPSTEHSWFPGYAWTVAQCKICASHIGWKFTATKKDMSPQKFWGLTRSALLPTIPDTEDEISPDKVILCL
human E3 ligase component cereblon (CRBN), sequence (Q16531 whole entry partner): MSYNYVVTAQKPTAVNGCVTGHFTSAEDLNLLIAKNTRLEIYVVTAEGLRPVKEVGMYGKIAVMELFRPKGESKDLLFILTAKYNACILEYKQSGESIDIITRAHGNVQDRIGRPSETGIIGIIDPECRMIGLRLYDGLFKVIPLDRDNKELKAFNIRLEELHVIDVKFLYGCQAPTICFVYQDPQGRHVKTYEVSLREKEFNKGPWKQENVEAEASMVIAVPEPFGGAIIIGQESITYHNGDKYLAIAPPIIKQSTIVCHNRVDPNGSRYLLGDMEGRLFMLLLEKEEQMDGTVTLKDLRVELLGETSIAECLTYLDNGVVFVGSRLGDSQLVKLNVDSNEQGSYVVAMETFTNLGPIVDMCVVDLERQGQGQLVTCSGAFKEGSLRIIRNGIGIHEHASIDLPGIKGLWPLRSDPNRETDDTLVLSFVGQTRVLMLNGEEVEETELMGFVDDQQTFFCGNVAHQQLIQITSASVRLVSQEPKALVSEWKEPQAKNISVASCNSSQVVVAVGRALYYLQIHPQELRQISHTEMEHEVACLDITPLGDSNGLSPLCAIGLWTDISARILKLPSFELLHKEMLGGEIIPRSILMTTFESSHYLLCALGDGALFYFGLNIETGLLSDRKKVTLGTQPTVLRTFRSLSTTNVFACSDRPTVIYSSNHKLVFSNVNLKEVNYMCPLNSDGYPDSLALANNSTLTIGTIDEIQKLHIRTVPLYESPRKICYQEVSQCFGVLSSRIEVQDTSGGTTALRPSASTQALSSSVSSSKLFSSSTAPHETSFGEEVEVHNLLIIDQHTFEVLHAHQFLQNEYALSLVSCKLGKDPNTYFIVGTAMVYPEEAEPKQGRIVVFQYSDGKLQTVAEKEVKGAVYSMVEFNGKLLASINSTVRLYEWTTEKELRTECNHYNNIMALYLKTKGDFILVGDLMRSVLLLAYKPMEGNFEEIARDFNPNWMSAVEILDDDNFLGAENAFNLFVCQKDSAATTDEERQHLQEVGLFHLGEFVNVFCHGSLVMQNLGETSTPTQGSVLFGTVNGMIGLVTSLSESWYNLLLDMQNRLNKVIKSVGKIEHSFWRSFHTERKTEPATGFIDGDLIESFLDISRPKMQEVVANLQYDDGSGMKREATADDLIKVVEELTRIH

The target of one experiment is human E3 ligase component cereblon (CRBN) (Homo sapiens (Human), UniProt Q96SW2). Nature of the experiment: Cereblon (CRBN) target engagement, NanoBRET TE Intracellular E3 Ligase Assay in transfected HEK-293T cells. The settings on record: read-out: CRBN Binding EC50. The procedure:
HEK293T cells were harvested ca. 75% confluent with trypsin and plated (500,000 cells/well) in a 6-well tissue culture plate in 2 mL of Dulbecco's Modified Eagle Medium (DMEM)+10% Fetal Bovine Serum (FBS) and incubated overnight at 37° C.
The NanoLuc-CRBN fusion vector (Nluc-CRBN; Promega) contains the coding region of human E3 ligase component cereblon (CRBN) fused to the C-terminus of the NanoLuc luciferase coding region. A mixture of 10 ng Nluc-CRBN and 990 ng DDB1 Expression Vector (Promega) was added to 125 μL Opti-Minimum Essential Medium (Opti-MEM™; Thermo Fisher) along with 2 μL P3000 reagent (Thermo Fisher) in a 1.5 mL epppendorf tube. This solution was added to Lipofectamine 3000 transfection reagent (5 μL; Thermo Fisher) in Opti-MEM (125 μL), mixed well, and incubated for 15 minutes at room temperature. The transfection mixture was added dropwise to cells and incubated overnight at 37° ° C., 5% CO2. Following transfection, cells were washed once with PBS, and trypsin (250 μL) was added and incubated 30-45 sec to dislodge cells. Complete media (2 mL) was added to resuspend cells to form a single cell suspension. Cells were centrifuged at 320×g for 5 min at room temperature, the supernatant was removed, and the cell pellet resuspended in Opti-MEM (3 mL; wash step repeated×2). After final resuspension in 5 mL Opti-MEM, cells were counted and resuspended at 200,000 cells/mL in Opti-MEM.
Cereblon target engagement was monitored by Bioluminescence Resonance Energy Transfer (BRET) in transfected HEK-293T cells using the NanoBRET TE Intracellular E3 Ligase Assay (Promega). Briefly, 384-well plates (white opaque plates, Corning 3574, low binding surface) were seeded with transfected HEK-293T cells (38 μL/well). 2 μL of 10 μM CRBN tracer (diluted 1:5 in Tracer Dilution Buffer) was added to each well. Plates were centrifuged at 320×g for 1 min at room temperature. Test compounds were added in a 11-point dilution series (typically 10 μM to […]) using a TECAN D300e Digital Dispenser. Plates were shaken for 2 minutes on a microplate shaker to mix compounds. Plates were centrifuged at 320×g for 1 min at room temperature, and subsequently incubated for 2 hours at 37° C.
After incubation, plates were allowed to cool to room temperature for 15 minutes. 20 μL of 3× Complete NanoBRET™ Nano-Glo® Substrate plus Inhibitor Solution (Promega, 1:166 Substrate and 1:500 dilution of Extracellular NanoLuc® Inhibitor diluted in Opti-MEM) were added to each well. Plates were incubated with shaking at room temperature for 3 minutes covered with foil. Plates were read on a CLARIOstar microplate reader (BMG LabTech), measuring at 450 nm (donor emission) and 610 nm (acceptor emission). The IC50 values were determined by regression to best fit four-parameter logistic curves using GraphPad Prism.
In general terms: BRET reads energy transfer from a luciferase to a nearby fluorophore.
For `N#Cc1cc(F)ccc1C1CN([C@@H]2CCC[C@@H]2Oc2ccc3c(c2)CN(C24CC(C2)C(=O)NC4=O)C3=O)C1` (racemic) [Compound 70, Rac-2-(1-((cis)-2-((2-(2,4-dioxo-3-azabicyclo[3.1.1]heptan-1-yl)-1-oxoisoindolin-5-yl)oxy)cyclopentyl)azetidin-3-yl)-5-fluorobenzonitrile], the EC50 was more than 10 µM.
On to `N#Cc1cccc(C2CN([C@H]3CCCC[C@H]3Oc3ccc4c(c3)CN(C35CC(C3)C(=O)NC5=O)C4=O)C2)c1` (racemic) [Compound 77, Rac-3-(1-((cis)-2-((2-(2,4-dioxo-3-azabicyclo[3.1.1]heptan-1-yl)-1-oxoisoindolin-5-yl)oxy)cyclohexyl)azetidin-3-yl)benzonitrile], for which the EC50 was more than 10 µM.
Regarding `N#Cc1cccc(C2CN([C@H]3CCCC[C@@H]3Oc3ccc4c(c3)CN(C35CC(C3)C(=O)NC5=O)C4=O)C2)c1` (racemic) [Compound 78, Rac-3-(1-((trans)-2-((2-(2,4-dioxo-3-azabicyclo[3.1.1]heptan-1-yl)-1-oxoisoindolin-5-yl)oxy)cyclohexyl)azetidin-3-yl)benzonitrile], the EC50 is more than 10 µM.
Regarding `N#Cc1ccc(C2CN([C@H]3CCCC[C@H]3Oc3ccc4c(c3)CN(C35CC(C3)C(=O)NC5=O)C4=O)C2)c(F)c1` (racemic) [Compound 90, Rac-4-(1-((cis)-2-((2-(2,4-dioxo-3-azabicyclo[3.1.1]heptan-1-yl)-1-oxoisoindolin-5-yl)oxy)cyclohexyl)azetidin-3-yl)-3-fluorobenzonitrile], the EC50 was more than 10 µM.
For the compound `N#Cc1ccc(C2CN([C@H]3CCCC[C@@H]3Oc3ccc4c(c3)CN(C35CC(C3)C(=O)NC5=O)C4=O)C2)c(F)c1` (racemic) [Compound 91, Rac-4-(1-((trans)-2-((2-(2,4-dioxo-3-azabicyclo[3.1.1]heptan-1-yl)-1-oxoisoindolin-5-yl)oxy)cyclohexyl)azetidin-3-yl)-3-fluorobenzonitrile], the EC50 was more than 10 µM.
As to `N#Cc1ccc(C2CN([C@H]3CCCC[C@H]3Oc3ccc4c(c3)CN(C35CC(C3)C(=O)NC5=O)C4=O)C2)cc1` (racemic) [Compound 92, Rac-4-(1-((cis)-2-((2-(2,4-dioxo-3-azabicyclo[3.1.1]heptan-1-yl)-1-oxoisoindolin-5-yl)oxy)cyclohexyl)azetidin-3-yl)benzonitrile], the EC50 was more than 10 µM.
As for `N#Cc1ccc(C2CN([C@H]3CCCC[C@@H]3Oc3ccc4c(c3)CN(C35CC(C3)C(=O)NC5=O)C4=O)C2)cc1` (racemic) [Compound 93, Rac-4-(1-((trans)-2-((2-(2,4-dioxo-3-azabicyclo[3.1.1]heptan-1-yl)-1-oxoisoindolin-5-yl)oxy)cyclohexyl)azetidin-3-yl)benzonitrile], the EC50 was more than 10 µM.

The next experiment has as its system IKZF2 (Helios). Briefly: IKZF2 reporter degradation assay (HEK 293T IKZF2-mNeonGreen reporter cell line). The note with it: 1 μM compound, 24 hour incubation, HEK 293T IKZF2-mNeonGreen reporter. Type of experiment: cell-based, human. An excerpt: Polycistronic plasmids were constructed for the mammalian expression of fluorescent reporter fusions of human transcription factors IKZF1 (Ikaros), IKZF2 (Helios), and IKZF3 (Aiolos). The respective protein sequences had their C-terminal end joined to a GGGGS linker repeated three times followed by mNeonGreen, P2A sequence, and mScarlet. The DNA sequences of the open reading frames are as follows:
IKZF1, IKZF2, and IKZF3 constructs were cloned into the UCOE Hygromycin expression vectors (Millipore Sigma). Reporter constructs were transfected using cationic lipid reagents into adherent HEK 293T cells and stable integrants were selected by treatment with 200 μg/mL hygromycin B. Clonal populations were obtained from the population of stable integrants either by limiting dilution or fluorescence activated cell sorting.
The clonal stable cell lines were maintained under constant 200 μg/mL hygromycin B selection while being passaged for use in the degradation assays. […] The fluorescence intensity of the IKZF1/2/3-mNeonGreen (FITC channel) and mScarlet (PE channel) reporters were routinely analyzed by flow cytometry to confirm consistent expression levels between experiments.
The IKZF1/IKZF2/IKZF3 degradation assays were carried out by harvesting the HEK 293T reporter cell lines and resuspending the cells in media formulated for reduced background fluorescence (FluoroBrite; Thermo Fisher). The respective cell lines were seeded at a density of 4000 cells/well into black-walled 384-well optical grade assay tissue culture plates. The cells were incubated overnight at 37° C. to allow for attachment to the assay plate. Dilutions of the compounds were prepared in DMSO from 10 mM compound stocks. The assay plates were treated with appropriate concentrations of the compounds by dispensing the DMSO dilutions in quadruplicate wells with an upper limit of 0.5% final DMSO.
After 24 hour incubation with the compounds, the assay plates were imaged on an ImageXpress Pico microscopy system (cells maintained at 37° C. during imaging) to obtain the fluorescent readouts. The assay plates were imaged in the FITC and Tetramethylrhodamine (TRITC) channels to obtain the mNeonGreen fluorescence intensity (reporter degradation data) and mScarlet fluorescence intensity (for cell segmentation). 293T-IKZF1 and 293T-IKZF3 reporter cell lines were imaged with exposures of 500 milliseconds (ms) for both FITC and TRITC channels, while the 293T-IKZF2 reporter cell line was imaged with exposures of 1000 ms for FITC and 1250 ms for TRITC. The resulting data was analyzed with Cell Reporter Xpress software using the 2-channel cell scoring analysis with a “percent positive” readout. The TRITC channel was selected for the “nuclei” segmentation with a threshold of 20 while the FITC channel was selected for the “Marker 1” segmentation and a threshold of 100 for the IKZF1 and IKZF3 reporter lines. […] The minimum segmentation width was set to 6 micrometers and the maximum segmentation width was set to 15 micrometers for all cell lines. The DCs calculations were determined by regression to best fit four-parameter logistic curves using GraphPad Prism.
Turning to `O=C1CCC(N2Cc3cc(O[C@H]4CCC[C@@H]4N4CC(c5cccc(F)c5)C4)ccc3C2=O)C(=O)N1` (stereo partly drawn) [Compound 88, 3-(5-(((1S,2S)-2-(3-(3-fluorophenyl)azetidin-1-yl)cyclopentyl)oxy)-1-oxoisoindolin-2-yl)piperidine-2,6-dione], the “IKZF2 % Degradation @ 1 μM” value is reported as 71.4%.
As for `O=C1CCC(N2Cc3cc(O[C@H]4CCCC[C@@H]4N4CC(c5ccc(F)cc5Cl)C4)ccc3C2=O)C(=O)N1` (stereo partly drawn) [Compound 103, 3-(5-(((1S,2S)-2-(3-(2-chloro-4-fluorophenyl)azetidin-1-yl)cyclohexyl)oxy)-1-oxoisoindolin-2-yl)piperidine-2,6-dione], the “IKZF2 % Degradation @ 1 μM” value came to 73.4%.
For the compound `O=C1CCC(N2Cc3cc(O[C@H]4CCC[C@@H]4N4CC(c5ccc(F)cc5Cl)C4)ccc3C2=O)C(=O)N1` (stereo partly drawn) [Compound 104, 3-(5-(((1S,2S)-2-(3-(2-chloro-4-fluorophenyl)azetidin-1-yl)cyclopentyl)oxy)-1-oxoisoindolin-2-yl)piperidine-2,6-dione], the “IKZF2 % Degradation @ 1 μM” value was found to be 71.2%.

One may read the EC50 as the midpoint of the concentration-response curve.
